Test results reported in US8192734B2, “Compositions and methods for bone strengthening” (Cornell University, priority 2007, dated 2012).

Assays:
[1] = tested on: rats; settings: cited from earlier work
[2] = tested on: mice; settings: cited from earlier work
[3] = tested on: pigs fed P-adequate corn-soybean meal basal diet; experiment: Expt 2: femur geometrical and strength properties; assay type: in vivo, pig; settings: phytase 2000 U/kg and/or Sr 50 mg/kg, n=6
Experimental: A three-point bending test was conducted on the dissected bones to generate load-deformation curves with an Instron Model 5566 (Norwood, Mass.). Mechanical properties of bones were calculated using formula as previously described^(29). Bone cross sections were cut at the mid-point of loading and used to determine area moment of inertia. Cross sections were submersed for 5 min in a 0.4 mol/L sodium hypochlorite solution to remove periosteum and marrow tissue, and then embedded in blue clay (Play-Doh, Hasbro, Pawtucket, R.I.) to prevent depth-of-field distortions and to enhance contrasts. The embedded sections were scanned with a flat-bed scanner (Epson Perfection Model 3490, Long Beach, Calif.) and analyzed using Image J software (30) to measure the x-y coordinates of bone pixels.

[4] = tested on: pigs fed P-adequate corn-soybean meal basal diet; experiment: Expt 2: BMC, BMD and bone area by dual energy X-ray absorptiometry; assay type: in vivo, pig; settings: main effect, phytase 2,000 U/kg or Sr 50 mg/kg
Experimental: In Experiment 2, bone mineral content (BMC, g) and bone mineral density (BMD, g/cm^2) of 3rd and 4th metatarsals from the left foot and femur from the left leg of each pig were measured. After being thawed to room temperature, entire bones were placed on a rice bag (to remove background effects) and scanned by dual energy X-ray absorptiometry using the GE Lunar Prodigy instrument (GE Lunar, Prodigy, Madison Wis.) in the small animal scan mode. Values of BMC and BMD were predicted by analysis of scans using Prodigy software (version 10.10.038).

[5] = tested on: pigs fed P-adequate corn-soybean meal basal diet; experiment: Expt 2: metatarsal and femur breaking strength, three-point bending test; assay type: in vivo, pig; settings: main effect, phytase 2,000 U/kg or Sr 50 mg/kg
Experimental: Third and 4th metatarsals in both experiments and femur (right leg) in Experiment 2 were prepared by manually removing surrounding skin, muscle and other tissues. Bones were stored in closed plastic bags at 4° C. until strength analysis. Maximal breaking load was measured using an Instron 4500 Machine (Canton, Mass.) at room temperature (23° C.) by subjecting each bone to a three-point bending test^(28). During mechanical tests, force was applied to the center of the bone held by supports 2.0 cm apart for metatarsals and 3.3 cm apart for femur. The crosshead speed was set at 50 mm/min and the sample rate was 10 points/s. Final strength was determined from load-displacement curves indicating the maximum loads. The metatarsal breaking strength was expressed as the mean strength of four bones from both left and right feet of pigs in Experiment 1, and as the mean of the two bones from the right foot of pigs in Experiment 2.

[6] = tested on: pigs fed P-adequate corn-soybean meal basal diet; experiment: Expt 2: metatarsal and femur mineral concentrations (ICP); assay type: in vivo, pig
Experimental: After the breaking strength analysis, samples (˜100 to 200 mg) of metatarsals in both experiments and femur in Experiment 2 from the right legs were used for mineral analysis. Cortical bones were isolated after removing attached connective tissue using a stainless steel scalpel and collecting individual shards using needle-nosed pliers with plastic-covered clamps. […] Concentrations of individual elements in the dried bone samples were measured using inductively coupled argon plasma spectrophotometer (ICAP 61E Trace Analyzer, Thermo Jarell Ash corporation, Franklin, Mass.)(31). Samples were digested in a mixture of HNO3 and HClO4 (9:1, vol/vol), and then diluted in 5% HNO3 before analysis.

[7] = main effect of Sr 50 mg/kg, P<0.0001
[8] = phytase 2000 U/kg and/or Sr 50 mg/kg, n=6

Question: With [Br-].[Br-].[Sr+2] [strontium bromide] as the compound, how does the LD50 [1] read?
Answer: The LD50 was 1 g/kg body weight.

Question: For [I-].[I-].[Sr+2] [strontium iodide], which LD50 [1] is on record?
Answer: The LD50 was 800 mg/kg body weight.

Question: For [Cl-].[Cl-].[Sr+2] [strontium chloride], which LD50 [2] is on record?
Answer: Its LD50 is 147.6 mg/kg body weight.

Question: For O=C([O-])[O-].[Sr+2] [Sr, SrCO3], which “femur Cross-sectional area” value [3] is on record?
Answer: Its value is 151 mm^2.

Question: What about the “femur Cross-sectional radius” value [3] of the same compound?
Answer: Its value is 9.0 mm.

Question: And the “femur Maximum bending moment” value [3]?
Answer: Its value is 2286 kg × mm.

Question: What about the “femur Maximum stress” value [3] of the same compound?
Answer: Its value is 4.3 kg/mm^2.

Question: And the “femur Modulus of elasticity” value [3]?
Answer: Its value is 50 kg/mm^2.

Question: And the “femur Moment of inertia” value [3]?
Answer: The value was 4891 mm^4.

Question: What about the “femur Strain” value [3] of the same compound?
Answer: Its value is 0.05.

Question: And the “femur Yield bending moment” value [3]?
Answer: Its value is 1384 kg-mm.

Question: What about the “femur Yield stress” value [3] of the same compound?
Answer: Its value is 2.6 kg/mm^2.

Question: What about the “elevation of BMD of the two bones (metatarsal, femur)” value [4] of the same compound?
Answer: The value was 6%.

Question: What about the “enhancement of BMC in both bones (metatarsal, femur)” value [4] of the same compound?
Answer: Its value is 6 to 8%.

Question: What about the “improvement in breaking strength of femur” value [5] of the same compound?
Answer: Its value is 10%.

Question: And the “improvement in breaking strength of metatarsals” value [5]?
Answer: Its value is 11%.

Question: What about the “elevation of metatarsal concentration of Sr” value [6, 7] of the same compound?
Answer: The value was 4 fold.

Question: What about the “enhancement of femur concentration of Sr” value [6, 7] of the same compound?
Answer: Its value is 3.9 fold.

Question: And the “femur Cr concentration” value [6, 8]?
Answer: The value was 7.0 mg/kg.

Question: And the “femur Fe concentration” value [6, 8]?
Answer: The value was 6.9 mg/kg.

Question: What about the “femur Mg concentration” value [6, 8] of the same compound?
Answer: The value was 5.4 g/kg.

Question: And the “femur Mn concentration” value [6, 8]?
Answer: Its value is 0.6 mg/kg.

Question: And the “femur Na concentration” value [6, 8]?
Answer: The value was 8.0 g/kg.

Question: What about the “femur P concentration” value [6, 8] of the same compound?
Answer: Its value is 176.3 g/kg.

Question: What about the “femur S concentration” value [6, 8] of the same compound?
Answer: Its value is 1.1 g/kg.

Question: What about the “femur Sr concentration” value [6, 8] of the same compound?
Answer: The value was 418.9 mg/kg.

Question: And the “femur Zn concentration” value [6, 8]?
Answer: The value was 209.6 mg/kg.

Question: And the “metatarsal Cr concentration” value [6, 8]?
Answer: Its value is 26.6 mg/kg.

Question: And the “metatarsal Fe concentration” value [6, 8]?
Answer: Its value is 23.5 mg/kg.

Question: What about the “metatarsal Mg concentration” value [6, 8] of the same compound?
Answer: The value was 3.5 g/kg.

Question: What about the “metatarsal Mn concentration” value [6, 8] of the same compound?
Answer: Its value is 2.8 mg/kg.

Question: What about the “metatarsal Na concentration” value [6, 8] of the same compound?
Answer: The value was 6.8 g/kg.

Question: And the “metatarsal P concentration” value [6, 8]?
Answer: The value was 88.1 g/kg.

Question: What about the “metatarsal S concentration” value [6, 8] of the same compound?
Answer: Its value is 1.0 g/kg.

Question: And the “metatarsal Sr concentration” value [6, 8]?
Answer: The value was 330.6 mg/kg.

Question: And the “metatarsal Zn concentration” value [6, 8]?
Answer: Its value is 146.8 mg/kg.

Question: Which LD50 [1] does the source give for strontium acetate here?
Answer: The LD50 was 1.16 mmol/kg.
